Data from patent publication US20150197492A1, “NOVEL INDENO[1,2-c]QUINOLIN-11-ONE DERIVATIVES, PREPARATION METHOD AND APPLICATION THEREOF” (National Defense Medical Center, priority 2014, published 2015).

How the values were obtained:
Type in all cases: cell-based
[1] = test system: A549/ATCC; experiment: cells; settings: A549/ATCC (Non-Small Cell Lung Cancer), 10 μM, 48 hours
[2] = test system: NCI-H23; experiment: cells; settings: NCI-H23 (Non-Small Cell Lung Cancer), 10 μM, 48 hours
[3] = test system: NCI-H226; experiment: cells; settings: NCI-H226 (Non-Small Cell Lung Cancer), 10 μM, 48 hours
[4] = test system: UO-31; experiment: cells; settings: UO-31 (Renal Cancer), 10 μM, 48 hours
[5] = test system: U251; experiment: cells; settings: U251 (CNS Cancer), 10 μM, 48 hours
[6] = test system: HCT-15; experiment: cells; settings: HCT-15 (Colon Cancer), 10 μM, 48 hours
[7] = test system: TK-10; experiment: cells; settings: TK-10 (Renal Cancer), 10 μM, 48 hours
[8] = test system: HCT-116; experiment: cells; settings: HCT-116 (Colon Cancer), 10 μM, 48 hours
[9] = test system: HOP-92; experiment: cells; settings: HOP-92 (Non-Small Cell Lung Cancer), 10 μM, 48 hours
[10] = test system: SF-268; experiment: cells; settings: SF-268 (CNS Cancer), 10 μM, 48 hours
[11] = test system: EKVX; experiment: NCI cancer cell cytotoxicity assay, Non-Small Cell Lung Cancer EKVX; settings: 10 μM, 48 hours
[12] = test system: MDA-MB-231/ATCC; experiment: cells; settings: MDA-MB-231/ATCC (Breast Cancer), 10 μM, 48 hours
[13] = test system: SK-MEL-5; experiment: cells; settings: SK-MEL-5 (Melanoma), 10 μM, 48 hours
[14] = test system: SNB-75; experiment: cells; settings: SNB-75 (CNS Cancer), 10 μM, 48 hours
[15] = test system: SW-620; experiment: cells; settings: SW-620 (Colon Cancer), 10 μM, 48 hours
[16] = test system: HOP-62; experiment: cells; settings: HOP-62 (Non-Small Cell Lung Cancer), 10 μM, 48 hours
[17] = test system: HL-60 (TB); experiment: cells; settings: HL-60 (TB) (Leukemia), 10 μM, 48 hours
[18] = test system: SF-539; experiment: cells; settings: SF-539 (CNS Cancer), 10 μM, 48 hours
[19] = test system: SK-MEL-2; experiment: cells; settings: SK-MEL-2 (Melanoma), 10 μM, 48 hours
[20] = test system: RXF 393; experiment: cells; settings: RXF 393 (Renal Cancer), 10 μM, 48 hours
[21] = test system: NCI-H460; experiment: cells; settings: NCI-H460 (Non-Small Cell Lung Cancer), 10 μM, 48 hours
[22] = test system: RPMI-8226; experiment: cells; settings: RPMI-8226 (Leukemia), 10 μM, 48 hours
[23] = test system: M14; experiment: cells; settings: M14 (Melanoma), 10 μM, 48 hours
[24] = test system: HCC-2998; experiment: cells; settings: HCC-2998 (Colon Cancer), 10 μM, 48 hours
[25] = test system: LOX IMVI; experiment: cells; settings: LOX IMVI (Melanoma), 10 μM, 48 hours
[26] = test system: K-562; experiment: cells; settings: K-562 (Leukemia), 10 μM, 48 hours
[27] = test system: IGROV1; experiment: cells; settings: IGROV1 (Ovarian Cancer), 10 μM, 48 hours
[28] = test system: MCF7; experiment: cells; settings: MCF7 (Breast Cancer), 10 μM, 48 hours
[29] = test system: COLO 205; experiment: cells; settings: COLO 205 (Colon Cancer), 10 μM, 48 hours
[30] = test system: NCI/ADR-RES; experiment: cells; settings: NCI/ADR-RES (Ovarian Cancer), 10 μM, 48 hours

Structure (SMILES): O=C1c2cc(Cl)ccc2-c2c(Cl)nc3ccccc3c21 [TC-XCl-1, 6,9-Dichloro-11H-indeno[1,2-c]quinolin-11-one]
- growth percentage [1]: 108.98%
- growth percentage [2]: 79.30%
- growth percentage [3]: 91.86%
- growth percentage [4]: 80.62%
- growth percentage [5]: 100.63%
- growth percentage [6]: 114.88%
- growth percentage [7]: 138.45%
- growth percentage [8]: 105.87%
- growth percentage [9]: 71.94%
- growth percentage [10]: 117.27%
- growth percentage [11]: 79.27%
- growth percentage [12]: 87.66%
- growth percentage [13]: 86.30%
- growth percentage [14]: 82.91%
- growth percentage [15]: 98.29%
- growth percentage [16]: 94.89%
- growth percentage [17]: 102.00%
- growth percentage [18]: 110.08%
- growth percentage [19]: 117.11%
- growth percentage [20]: 112.80%
- growth percentage [21]: 98.68%
- growth percentage [22]: 92.83%
- growth percentage [23]: 109.79%
- growth percentage [24]: 98.52%
- growth percentage [25]: 84.23%
- growth percentage [26]: 102.16%
- growth percentage [27]: 92.82%
- growth percentage [28]: 74.25%
- growth percentage [29]: 99.18%
- growth percentage [30]: 96.78%
